# Entries after “also recorded” stand apart in the source; their conditions may differ.
# Legend:
# RAS-expressing cells = conditions: knockdown studies; U.S. Pat. No. 8,546,421; cited from earlier work
# [1] = test system: Caki-1 renal cell carcinoma cells; assay: Viability of Caki-1 renal cell carcinoma cells after treatment; assay type: cell-based; conditions: various doses, 24 hours treatment
# Experimental: Caki-1 renal carcinoma cells were treated with either control (DMSO) or various doses (e.g. 0.002, 0.005, 0.014, 0.041, 0.123, 0.370, 1.111, 3.333 and 10 μM) of a GPX4 inhibitor (RSL3 or ML162) in the presence or absence of 1 μM Ferrostatin for 24 hours prior to co-culture with THP1-Dual cells for an additional 24 hours. […] Caki-1 cells were acquired from ATCC and THP1-Dual cells acquired from InvivoGen (San Diego, Calif.). Both cell types were cultured in 96-well plates for the duration of the assay.
# [2] = test system: Jurkat T cell leukemia cells; assay: Viability of Jurkat T cell leukemia cells after treatment; assay type: cell-based; conditions: various doses, 24 hours treatment
# IRF = IRF reporter activity in THP1-Dual monocytes co-cultured with treated A20 cells; assay type: cell-based, human; conditions: A20 cells treated 24 hours, then co-culture with THP1-Dual cells 24 hours; versus DMSO
# Experimental: A20 B-cell leukemia cells were treated with either control (DMSO) or various doses of RSL3, for 24 hours prior to co-culture with THP1-Dual cells for an additional 24 hours. RSL3 was purchased from Selleckchem (Houston, Tex.) and dissolved in DMSO. Subsequently, the THP1 supernatants were assessed for NFKB or IRF reporter activity. A20 cells were acquired from ATCC and THP1-Dual cells acquired from InvivoGen (San Diego, Calif.). Both cell types were cultured in 96-well plates for the duration of the assay. 50,000 A20 cells were plated 24 hours prior to dosing with RSL3, with a final DMSO concentration of 0.5%. 24 hours post-treatment, THP1-Dual cells (25,000 cells/well) were added to the A20 cells. 24 hours later, 30 μl of supernatant was mixed with either 200 μl QuantiBlue (InvivoGen, San Diego, Calif.) or 50 μl QuantiLuc and absorbance or luminescence was recorded on a Molecular Devices plate reader.
# NFKB [3] = assay: NFKB reporter activity in THP1-Dual monocytes co-cultured with treated A20 cells; assay type: cell-based, human; conditions: A20 cells treated 24 hours, then co-culture with THP1-Dual cells 24 hours; versus DMSO
# Experimental: (§1) A20 B-cell leukemia cells were treated with either control (DMSO) or various doses of RSL3, for 24 hours prior to co-culture with THP1-Dual cells for an additional 24 hours. RSL3 was purchased from Selleckchem (Houston, Tex.) and dissolved in DMSO. Subsequently, the THP1 supernatants were assessed for NFKB or IRF reporter activity.
# (§2) A20 cells were acquired from ATCC and THP1-Dual cells acquired from InvivoGen (San Diego, Calif.). Both cell types were cultured in 96-well plates for the duration of the assay. 50,000 A20 cells were plated 24 hours prior to dosing with RSL3, with a final DMSO concentration of 0.5%. 24 hours post-treatment, THP1-Dual cells (25,000 cells/well) were added to the A20 cells. 24 hours later, 30 μl of supernatant was mixed with either 200 μl QuantiBlue (InvivoGen, San Diego, Calif.) or 50 μl QuantiLuc and absorbance or luminescence was recorded on a Molecular Devices plate reader.
# A20 lymphoma cells were treated with various doses (e.g. 0.002, 0.005, 0.014, 0.041, 0.123, 0.370, 1.111, 3.333 and 10 μM) of a GPX4 inhibitor (RSL3, ML162 or ML210) in the presence or absence of 1 μM Ferrostatin-1 for 24 hours. ML162 was purchased from Cayman Chemical Company Inc and resuspended in DMSO. ML210 was purchased from Sigma-Aldrich and resuspended in DMSO. A20 lymphoma cells were also treated with DMSO as a negative control. After treatment with DMSO or a GPX4 inhibitor for 24 hours, the A20 lymphoma cells were co-cultured with THP1-Dual cells for an additional 24 hours. Subsequently, the THP1 supernatant was assessed for NFKB reporter activity. A20 cells were acquired from ATCC and THP1-Dual cells were acquired from InvivoGen (San Diego, Calif.). Both cell types were cultured in 96-well plates for the duration of the assay.
# NFKB [4] = assay: NFKB reporter activity in THP1-Dual monocytes co-cultured with treated Caki-1 cells; assay type: cell-based, human; conditions: Caki-1 cells treated 24 hours, then co-culture with THP1-Dual cells 24 hours; versus DMSO
# Experimental: as §1, with “Caki-1 renal cell carcinoma” for “A20 B-cell leukemia”, “Erastin,” for “RSL3,”, “Erastin” for “RSL3”
# as §2, with “Caki-1” for “A20”, “7,500 Caki-1” for “50,000 A20”, “Erastin,” for “RSL3,”, “(InvivoGen)” for “(InvivoGen, San Diego, Calif.)”
# as §1, with “Caki-1 renal cell carcinoma” for “A20 B-cell leukemia”, “Selleckchem” for “Selleckchem (Houston, Tex.)”
# as §2, with “Caki-1” for “A20”, “7,500 Caki-1” for “50,000 A20”
# Caki-1 renal carcinoma cells were treated with either control (DMSO) or various doses (e.g. 0.002, 0.005, 0.014, 0.041, 0.123, 0.370, 1.111, 3.333 and 10 μM) of a GPX4 inhibitor (RSL3 or ML162) in the presence or absence of 1 μM Ferrostatin for 24 hours prior to co-culture with THP1-Dual cells for an additional 24 hours. Subsequently, the THP1 supernatant was assessed for NFKB reporter activity. Caki-1 cells were acquired from ATCC and THP1-Dual cells acquired from InvivoGen (San Diego, Calif.). Both cell types were cultured in 96-well plates for the duration of the assay.
# A20 lymphoma cells = assay: Viability of A20 B-cell leukemia / lymphoma cells after treatment; assay type: cell-based; conditions: various doses, 24 hours treatment
# NFKB [5] = assay: NFKB reporter activity in THP1-Dual monocytes co-cultured with treated Jurkat cells; assay type: cell-based, human; conditions: Jurkat cells treated 24 hours, then co-culture with THP1-Dual cells 24 hours; versus DMSO
# Experimental: as §1, with “Jurkat T cell” for “A20 B-cell”
# as §2, with “Jurkat” for “A20”, “100,000 Jurkat” for “50,000 A20”
smiles,measurement,setting,value
COC(=O)c1ccc([C@H]2c3[nH]c4ccccc4c3C[C@H](C(=O)OC)N2C(=O)CCl)cc1 [RSL3],death of RAS-expressing cells,RAS-expressing cells,selectively mediated the death of RAS-expressing cells
same,lipid ROS accumulation,RAS-expressing cells,increasing lipid ROS accumulation
same,viability of Caki-1 cells,[1],negatively affected the viability; also recorded: decreased viability of the cells in a dose dependent manner
same,viability of Jurkat T cell leukemia cells,[2],negatively affected the viability
same,IRF signaling in THP1 monocytes,IRF,elicited
same,NFKB signaling/activity in THP1 monocytes,NFKB [3],elicited; also recorded: increased NFKB activity in THP1 cells in a dose dependent manner
same,NFKB signaling/activity in THP1 monocytes,NFKB [4],elicited NFKB signaling; also recorded: increased NFKB activity in THP1 cells in a dose dependent manner
same,viability of A20 cells,A20 lymphoma cells,negatively affected the viability; also recorded: decreased viability of the cells in a dose dependent manner
same,NFKB signaling in THP1 monocytes,NFKB [5],elicited NFKB signaling

# Source: patent publication US20210251994A1, “INCREASING IMMUNE ACTIVITY THROUGH MODULATION OF POSTCELLULAR SIGNALING FACTORS” (FLAGSHIP PIONEERING INNOVATIONS V, INC., priority 2018, published 2021)
